Measurements taken from patent US5635509A, “Piperidine derivatives useful as neurokinin antagonists” (Zeneca Limited, priority 1994, dated 1997).
Counter-ions that a name gives are not always drawn.

Legend:
human NK2 receptor = target: T1, human NK2 receptor (Homo sapiens, UniProt P21452); assay: Neurokinin A (NKA) Receptor-binding Assay (Test A); settings: typically found
T1 construct: expressed in transfected cells; host or cells: Mouse Erythroleukemia (MEL) cells
T1 sequence (P21452 1-398): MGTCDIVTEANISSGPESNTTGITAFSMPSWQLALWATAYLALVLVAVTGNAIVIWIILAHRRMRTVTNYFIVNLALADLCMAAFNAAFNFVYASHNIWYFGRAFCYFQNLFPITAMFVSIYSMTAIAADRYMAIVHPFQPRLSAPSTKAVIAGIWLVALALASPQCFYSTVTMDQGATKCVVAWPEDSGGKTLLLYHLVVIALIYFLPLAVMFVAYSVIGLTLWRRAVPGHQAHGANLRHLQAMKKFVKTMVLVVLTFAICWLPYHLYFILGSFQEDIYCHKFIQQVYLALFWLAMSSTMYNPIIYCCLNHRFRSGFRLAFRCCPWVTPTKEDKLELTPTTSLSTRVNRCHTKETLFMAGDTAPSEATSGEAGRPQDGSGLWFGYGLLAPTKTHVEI
Description: Neurokinin A (NKA) Receptor-binding Assay (Test A)

guinea pig trachea = target: T2, guinea pig trachea (Cavia porcellus, UniProt Q64077); assay: Guinea Pig Assay (Test B), functional assay in guinea pig trachea, antagonism of NKA or [β-ala8]-NKA(4-10) contraction; assay type: cell-based; settings: -log molar KB, agonist NKA or [β-ala8]-NKA(4-10), 30 min incubation
T2 construct: The trachea are removed, trimmed of excess tissue and divided into two segments; from tissue; host or cells: guinea pig trachea rings
T2 sequence (Q64077 1-402): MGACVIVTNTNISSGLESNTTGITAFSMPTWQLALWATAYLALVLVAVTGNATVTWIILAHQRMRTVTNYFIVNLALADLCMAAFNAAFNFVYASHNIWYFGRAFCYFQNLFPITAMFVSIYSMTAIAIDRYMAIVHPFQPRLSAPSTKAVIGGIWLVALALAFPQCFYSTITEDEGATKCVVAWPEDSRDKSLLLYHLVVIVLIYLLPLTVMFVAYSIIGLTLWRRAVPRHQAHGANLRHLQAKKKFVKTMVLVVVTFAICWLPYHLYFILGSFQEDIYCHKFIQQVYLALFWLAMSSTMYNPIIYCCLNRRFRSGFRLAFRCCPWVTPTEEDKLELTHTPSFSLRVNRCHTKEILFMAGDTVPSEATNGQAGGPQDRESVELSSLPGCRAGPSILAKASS
Protocol: Guinea Pig Assay (Test B)
The chosen agonist is refered to as AG throughout the description.
Male guinea pigs are killed by a sharp blow to the back of the head. The trachea are removed, trimmed of excess tissue and divided into two segments. Each segment is suspended as a ring between stainless steel stirrups in water-jacketed (37.5° C.) tissue baths containing a physiological salt solution of the following composition (mM): NaCl, 119; KCl 4.6; CaCl2, 1.8; MgCl2, 0.5; NaH2 PO4, 1; NaHCO3, 25; glucose, 11; thiorphan, 0.001; and indomethacin, 0.005; gassed continuously with 95% O2 -%5 CO2. […] Contractile responses are measured on a Grass polygraph via Grass FT-03 force transducers.
Tissues are challenged repetitively with a single concentration of AG (10 nM) with intervening 30 min periods with washing to allow the tension to return to baseline levels. […] Percent inhibition is determined when a Compound produces a statistically significant (p<0.05) reduction of the contraction and is calculated using the second contractile response as 100%.
Potencies of selected Compounds are evaluated by calculating apparent dissociation constants (KB) for each concentration tested using the standard equation: […]
where dose ratio=antilog[(AG -log molar EC50 without Compound)--(AG -log molar EC50 with Compound)]. The KB values may be converted to the negative logarithms and expressed as -log molar KB (i.e. pKB). […]

Work on `O[C@@H](c1nccn1-c1ccccc1)[C@H](CCN1CCC(O)(c2ccccc2)CC1)c1ccc(Cl)c(Cl)c1` (racemic) [Example 2, 2-[(1RS,2RS)-2-(3,4-Dichlorophenyl)-1-hydroxy-4-(4-hydroxy-4-phenylpiperidino)butyl]-1-phenylimidazole Hydrochloride] yielded a Ki (human NK2 receptor) of 34 nM.
`O=C(c1c[nH]nc1-c1ccccc1)C(CCN1CCC(O)(c2ccccc2)CC1)c1ccc(Cl)c(Cl)c1` (centres unmarked) [Example 3, 4-[2-(3,4-Dichlorophenyl)-4-(4-hydroxy-4-phenylpiperidino)butyroyl]-3-phenyl-1H-pyrazole] was tested, and the Kb (guinea pig trachea) was 251 nM.
